This note sets out measurements from US9993459B2, “Selective HDAC6 inhibitors and uses thereof” (Universiteit Gent, priority 2015, dated 2018).

In series [1] the test system is glucocorticoid receptor, GR. The experiment in a line: GRE-dependent luciferase reporter p(GRE)2-50-luc in A549 cells. Conditions: for DEX-activated GR-driven gene expression (transcriptional activity of GR): A549, 1 μM or 10 μM, 1 h pre-incubation then DEX 1 μM 5 h. The format is cell-based.
For series [2], the target named is T1, HDAC8 (Homo sapiens, UniProt Q9BY41).
T1 sequence (Q9BY41 1-377): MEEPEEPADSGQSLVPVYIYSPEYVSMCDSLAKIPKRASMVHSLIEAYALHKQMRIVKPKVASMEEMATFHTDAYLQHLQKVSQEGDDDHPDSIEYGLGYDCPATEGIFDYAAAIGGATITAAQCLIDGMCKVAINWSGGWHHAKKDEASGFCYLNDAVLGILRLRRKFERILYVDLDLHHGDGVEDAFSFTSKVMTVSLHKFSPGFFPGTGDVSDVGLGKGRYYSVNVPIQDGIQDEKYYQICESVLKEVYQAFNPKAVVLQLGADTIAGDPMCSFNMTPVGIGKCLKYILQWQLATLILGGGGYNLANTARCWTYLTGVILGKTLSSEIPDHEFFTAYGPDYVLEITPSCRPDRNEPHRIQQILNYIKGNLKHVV
Briefly: In vitro HDAC isozyme selectivity screen: HDAC8. The format is biochemical. Conditions: for IC50: Table 2.

Series [3] deals with T2, HDAC7 (Homo sapiens, UniProt Q8WUI4).
T2 sequence (Q8WUI4 1-952): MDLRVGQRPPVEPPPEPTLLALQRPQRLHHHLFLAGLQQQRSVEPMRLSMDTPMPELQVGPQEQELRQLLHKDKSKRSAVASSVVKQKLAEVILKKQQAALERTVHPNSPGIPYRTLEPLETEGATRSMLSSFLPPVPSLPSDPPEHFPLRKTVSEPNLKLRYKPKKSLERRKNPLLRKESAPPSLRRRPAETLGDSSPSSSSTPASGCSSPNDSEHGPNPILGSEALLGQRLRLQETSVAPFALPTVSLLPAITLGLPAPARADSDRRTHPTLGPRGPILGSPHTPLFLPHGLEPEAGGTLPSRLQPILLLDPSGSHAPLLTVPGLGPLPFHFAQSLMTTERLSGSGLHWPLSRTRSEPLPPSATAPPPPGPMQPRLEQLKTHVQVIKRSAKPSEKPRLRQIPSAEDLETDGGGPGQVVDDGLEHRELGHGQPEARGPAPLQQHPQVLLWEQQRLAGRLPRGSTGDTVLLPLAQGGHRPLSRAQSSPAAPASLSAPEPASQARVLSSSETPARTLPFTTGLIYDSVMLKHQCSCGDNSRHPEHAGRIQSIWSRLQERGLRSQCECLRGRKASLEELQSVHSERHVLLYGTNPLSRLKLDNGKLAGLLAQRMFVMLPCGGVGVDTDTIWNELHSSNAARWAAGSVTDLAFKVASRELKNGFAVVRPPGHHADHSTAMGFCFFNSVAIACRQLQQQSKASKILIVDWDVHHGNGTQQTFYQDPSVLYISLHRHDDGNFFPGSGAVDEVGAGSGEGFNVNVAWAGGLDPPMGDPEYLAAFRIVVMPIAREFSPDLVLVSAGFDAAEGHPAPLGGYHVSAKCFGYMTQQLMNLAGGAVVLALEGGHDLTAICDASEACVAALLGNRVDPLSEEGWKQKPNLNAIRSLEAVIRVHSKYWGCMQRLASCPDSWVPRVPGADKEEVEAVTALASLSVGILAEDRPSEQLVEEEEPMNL
The experiment in a line: In vitro HDAC isozyme selectivity screen: HDAC7. Format: biochemical. Conditions: for IC50: Table 2.

Series [4] has as its target T3, HDAC6 (Homo sapiens, UniProt Q9UBN7).
T3 sequence (Q9UBN7 1-1215): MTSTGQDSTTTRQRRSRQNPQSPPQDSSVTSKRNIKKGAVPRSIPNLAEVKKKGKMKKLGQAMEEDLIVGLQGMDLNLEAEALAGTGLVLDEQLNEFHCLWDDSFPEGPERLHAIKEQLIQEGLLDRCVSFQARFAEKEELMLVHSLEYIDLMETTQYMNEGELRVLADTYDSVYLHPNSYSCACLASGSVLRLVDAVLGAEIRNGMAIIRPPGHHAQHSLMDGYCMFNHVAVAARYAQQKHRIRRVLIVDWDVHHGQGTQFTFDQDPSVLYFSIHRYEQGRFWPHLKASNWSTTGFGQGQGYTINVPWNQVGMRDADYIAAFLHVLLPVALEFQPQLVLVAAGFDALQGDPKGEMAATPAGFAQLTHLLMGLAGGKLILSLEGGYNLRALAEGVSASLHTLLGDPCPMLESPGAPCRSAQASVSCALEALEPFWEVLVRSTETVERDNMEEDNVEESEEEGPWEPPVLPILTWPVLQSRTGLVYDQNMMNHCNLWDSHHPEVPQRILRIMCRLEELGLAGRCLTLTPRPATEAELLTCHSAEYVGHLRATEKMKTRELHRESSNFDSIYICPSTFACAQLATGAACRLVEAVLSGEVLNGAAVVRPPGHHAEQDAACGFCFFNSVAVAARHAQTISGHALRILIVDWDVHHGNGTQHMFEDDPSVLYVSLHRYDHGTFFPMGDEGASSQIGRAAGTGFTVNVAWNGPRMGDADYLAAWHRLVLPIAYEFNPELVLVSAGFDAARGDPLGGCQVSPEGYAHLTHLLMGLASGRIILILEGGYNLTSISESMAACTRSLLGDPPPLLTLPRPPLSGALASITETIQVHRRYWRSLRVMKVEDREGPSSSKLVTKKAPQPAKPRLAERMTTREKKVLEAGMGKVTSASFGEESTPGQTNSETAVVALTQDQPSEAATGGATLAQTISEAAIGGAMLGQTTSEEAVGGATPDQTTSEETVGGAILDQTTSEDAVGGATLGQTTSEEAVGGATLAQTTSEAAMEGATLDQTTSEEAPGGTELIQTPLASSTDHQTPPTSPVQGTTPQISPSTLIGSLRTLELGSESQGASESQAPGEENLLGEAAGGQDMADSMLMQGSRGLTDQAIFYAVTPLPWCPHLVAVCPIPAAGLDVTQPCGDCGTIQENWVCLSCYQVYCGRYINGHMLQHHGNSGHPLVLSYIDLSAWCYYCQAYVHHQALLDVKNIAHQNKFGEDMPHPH
The experiment in a line: In vitro HDAC6 inhibition. Format: biochemical. Conditions: for inhibition at 10 µM: HDAC6, 10 μM.

Series [5] concerns the target HDAC4 (Homo sapiens, UniProt P56524). Briefly: In vitro HDAC isozyme selectivity screen: HDAC4. The format is biochemical. Conditions: for IC50: Table 2.
The target of series [6] is HDAC3 (Homo sapiens, UniProt O15379). The experiment in a line: In vitro HDAC isozyme selectivity screen: HDAC3. The format is biochemical.
Sequence of HDAC3 (O15379 whole entry, species assumed): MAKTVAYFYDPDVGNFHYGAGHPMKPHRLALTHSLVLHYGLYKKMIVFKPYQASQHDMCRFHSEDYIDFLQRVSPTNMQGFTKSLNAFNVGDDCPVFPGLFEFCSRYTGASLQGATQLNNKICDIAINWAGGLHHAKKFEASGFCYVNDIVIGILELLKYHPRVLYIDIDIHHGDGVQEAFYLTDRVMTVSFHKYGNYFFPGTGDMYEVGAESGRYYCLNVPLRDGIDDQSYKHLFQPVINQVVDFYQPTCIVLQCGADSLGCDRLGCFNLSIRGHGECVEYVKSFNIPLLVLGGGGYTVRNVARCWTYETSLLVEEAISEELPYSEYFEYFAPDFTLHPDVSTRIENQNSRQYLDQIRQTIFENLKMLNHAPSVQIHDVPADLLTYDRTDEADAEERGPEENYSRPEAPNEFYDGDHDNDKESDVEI
Sequence of HDAC3 (Q9Y618 395-489 partner limits assumed, species assumed): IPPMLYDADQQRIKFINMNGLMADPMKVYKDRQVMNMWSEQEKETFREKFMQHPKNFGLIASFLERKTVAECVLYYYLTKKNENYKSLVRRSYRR

Like-named read-outs stand apart in the source and are kept apart here.

The melting point is the temperature of the solid-liquid transition. In general, IC50 refers to the concentration that gives 50% inhibition. A word on the inhibition: it is the change of the read-out against control, counted positive when it falls. High values mean a response far below the control, low ones a response near the control.

Sequence of HDAC4 (P56524 whole entry, species assumed): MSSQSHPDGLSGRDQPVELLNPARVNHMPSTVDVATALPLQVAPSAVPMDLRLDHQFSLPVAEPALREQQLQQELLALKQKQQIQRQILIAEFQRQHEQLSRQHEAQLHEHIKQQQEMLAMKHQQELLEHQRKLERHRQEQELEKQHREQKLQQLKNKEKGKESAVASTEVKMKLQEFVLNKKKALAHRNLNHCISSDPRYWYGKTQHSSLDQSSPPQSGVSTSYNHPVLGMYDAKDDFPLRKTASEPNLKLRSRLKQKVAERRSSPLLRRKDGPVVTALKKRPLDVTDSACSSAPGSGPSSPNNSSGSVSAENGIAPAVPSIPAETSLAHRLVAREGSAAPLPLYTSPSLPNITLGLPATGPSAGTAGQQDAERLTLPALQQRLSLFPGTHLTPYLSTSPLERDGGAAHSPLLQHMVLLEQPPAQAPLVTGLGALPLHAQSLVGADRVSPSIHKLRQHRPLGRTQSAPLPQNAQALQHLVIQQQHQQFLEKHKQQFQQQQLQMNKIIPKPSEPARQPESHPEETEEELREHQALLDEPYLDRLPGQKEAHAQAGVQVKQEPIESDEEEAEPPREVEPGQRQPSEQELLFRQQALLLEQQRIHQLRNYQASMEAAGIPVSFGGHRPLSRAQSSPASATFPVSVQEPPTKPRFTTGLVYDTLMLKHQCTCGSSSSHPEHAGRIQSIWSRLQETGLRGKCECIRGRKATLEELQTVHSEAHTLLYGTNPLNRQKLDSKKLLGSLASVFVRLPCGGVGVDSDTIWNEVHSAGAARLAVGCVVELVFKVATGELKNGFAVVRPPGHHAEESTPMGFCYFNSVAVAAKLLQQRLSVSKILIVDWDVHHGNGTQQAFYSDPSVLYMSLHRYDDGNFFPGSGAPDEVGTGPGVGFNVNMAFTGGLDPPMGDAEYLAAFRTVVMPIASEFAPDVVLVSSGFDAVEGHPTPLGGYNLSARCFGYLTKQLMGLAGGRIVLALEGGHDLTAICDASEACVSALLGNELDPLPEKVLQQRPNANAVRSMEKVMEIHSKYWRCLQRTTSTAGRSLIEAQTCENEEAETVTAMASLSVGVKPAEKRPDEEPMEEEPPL

In the case of `O=C(NO)c1ccc(NCc2csc3ccccc23)cc1` [Compound 7a, 3-[(4-hydroxycarbamoylphenyl)aminomethyl]benzothiophene], the melting point worked out at 191 °C. In series [1], the “DEX-activated GR-driven gene expression (transcriptional activity of GR)” value is recorded as “leaves the transcriptional activity of GR unhampered”. The “enhancement of GR-driven gene expression” value in series [1] (A549, 1 μM, with DEX 1 μM) was “able to significantly enhance GR-driven gene expression”. In addition, in series [2], the 50% inhibitory concentration (IC50) amounted to 1400 nM. Also, the IC50 in series [3] was 5200 nM. For the same compound, in series [4], the inhibition at 10 µM is 99.8%. Moreover, the IC50 in series [4] (HDAC6, Table 1, read-out: IC50) is 14 nM. Besides, in series [5], the concentration for half-maximal inhibition (IC50) was determined as 10000 nM.
As to `O=C(NO)c1ccc(NCc2csc3ccc(Br)cc23)cc1` [Compound 7b, 5-bromo-3-[(4-hydroxycarbamoylphenyl)aminomethyl]-benzothiophene], the “DEX-activated GR-driven gene expression (transcriptional activity of GR)” value in series [1] is “leaves the transcriptional activity of GR unhampered”. Also, the “selectivity for HDAC6 over HDAC8” value in series [2] (HDAC8 vs HDAC6 IC50) is reported as 57 fold. Besides, the IC50 was 2100 nM in series [2]; 37 nM in series [4] (HDAC6, Table 1, read-out: IC50); 37 nM in series [4] (Table 2, read-out: IC50 HDAC6); more than 100000 nM in series [5]. Further, the “effect at 100 μM, HDAC7” value in series [3] (100 μM) is given as “less than 50%”. For the same compound, in series [6] (100 μM), the “effect at 100 μM, HDAC3” value is “less than 50%”. Also, in series [4], testing at 10 µM gave an inhibition of 99.2%. The “effect at 100 μM, HDAC4” value in series [5] (100 μM) is “less than 50%”.
Consider `O=C(NO)c1ccc(NCc2csc3cc(Br)ccc23)cc1` [Compound 13a, 6-bromo-3-[(4-hydroxycarbamoylphenyl)aminomethyl]-benzothiophene], for which the melting point came out at 179.5 °C. The IC50 in series [2] stood at 1900 nM. The same compound displayed an IC50 in series [3] of 12000 nM. Moreover, the IC50 in series [6] (Table 2) is 6600 nM. The compound further had an inhibition at 10 µM in series [4] of 99.3%. Further, in series [4] (HDAC6, Table 1, read-out: IC50), the 50% inhibitory concentration (IC50) was found to be 64 nM. Also, the IC50 in series [5] came out at 31000 nM.
